Test results published in patent publication US11147796B2, “Agent for preventing or ameliorating hearing impairment” (Tohoku University, priority 2017, dated 2021).

Experiments:
[1] = tested on: wild-type male mice (C57BL/6) exposed to strong sound; assay: Hearing ability by ABR after strong acoustic exposure; assay type: in vivo, mouse; settings: vs non-administration group
Procedure: (§1) Ndufs 4 KO mice (mutant mice due to the substitution of the second exon of the Ndufs 4 gene with Neo sandwiched between loxP sequences) were purchased from Jacson Laboratory. The genetic background of the mouse was C57BL/6, and 60 days old (body weight 10 to 13 g) was used. Compound #5 (1 mg/kg body weight/day) synthesized in Example 1 was orally administered to Ndufs 4 KO mice (administration group of Ndufs 4 KO mice, n=5), between 28 and 60 days of age, at 60 days of age, the hearing ability of the compound #5 administration group was evaluated by auditory brainstem response (ABR). As a control, the hearing ability of Nudfs 4 KO mice not received compound #5 (non-administration group of Ndufs 4 KO mice, n=4), wild type mice not received compound #5 (non-administration group of wild type mice, n=3) and Ndufs 4 hetero KO mice not received compound N #5 (non-administration group of Ndufs 4 hetero KO mice, n=4) was assessed by ABR at 60 days of age. In measuring the hearing ability, a mixture of ketamine (100 mg/kg body weight) and xylazine (20 mg/kg body weight) were anesthetized by intraperitoneal injection of mice. ABR was also analyzed using TDT System 3 workstation and BioSigRP software (Tucker-Davis Technologies). The averaging (1000 times) of the evoked response to the tone burst sound of each frequency (4, 8, 12, 16, and 32 kHz) was recorded. Stimuli sounds were presented at 5 dB intervals from each frequency, 100 dB SPL (Sound Pressure Level) to 10 dB SPL. The threshold value of ABR was set as the minimum sound pressure threshold value at which at least one waveform was confirmed with reproducibility.
Six male wild-type male mice (C57BL/6) were inoculated into each of three groups (non-administration group of wild type mice, administration (1) group of wild type mice and administration (10) group of wild type mice). Compound #5 (1 mg/kg body weight/day) was orally administered to the administration (1) group of wild type mice for 1 week, compound group #5 (10 mg/kg body weight/day) for 1 week. Compound #5 was not administered to the non-administration group of wild-type mice. After oral administration for 1 week, each group of mice was placed in a chamber for strong acoustic exposure in an awake state, and octave band noise of sound pressure level 100 dB SPL, 8 to 16 kHz was exposed for 2 hours. Noise was generated with a noise generator (SF-06, Random Noise Generator; manufactured by RION), then amplified with an amplifier (D-75A; manufactured by Crown), and the audio was filtered with an audio filter (Multifunction Filter; manufactured by NF Corporation). The frequency band was set and outputted by a speaker (2446H; manufactured by JBL) attached to the center of the ceiling in the chamber. The sound pressure level was measured and confirmed with a sound pressure measuring device (2250L; manufactured by Bruel & Kjar) for each experiment. Hearing power was evaluated by ABR according to the method described in item “6-1” of Example 6 before strong-acoustic exposure and 4 hours after exposure.

[2] = tested on: Ndufs 4 KO mice; assay: Hearing ability by auditory brainstem response (ABR) in Ndufs 4 KO mice; assay type: in vivo, mouse; settings: vs non-administration KO
Procedure: as §1, with “The threshold value of ABR was set as the minimum sound pressure threshold value at which at least one waveform was confirmed with reproducibility.” left out
Using Ndufs 4 KO mice and their littermate wild type mice (littermate wild type mice), the hearing power of littermate wild type mice not received compound #5 (non-administration group of wild-type mice, n=5), Ndufs 4 KO mice not received compound #5 (non-administration group of Ndufs 4 KO mice, n=5) and Ndufs 4 KO mice received compound #5 (administration group of Ndufs 4 KO mice, n=5) were evaluated by ABR at 28 days of age and 60 days of age according to the method described in the item “6-1” of Example 6. […]

[3] = tested on: outer hair cells; assay: Survival rate of outer hair cells in cultured inner ear with cisplatin; assay type: cell-based, C57BL/6J mouse; settings: 48 hours
Procedure: In the following Examples 2, 3, and 5, “m.1555A>G mutant” cells were obtained by skin reproductive to a patient having “m.1555A>G mutation” to obtain dermal fibroblasts, then 10% Primary culture was carried out in DMEM (low glucose) culture solution (manufactured by Nacalai Tesque, Inc) containing FBS (Fetal bovine serum) under the condition of 5% CO2/20% O2, at 37° C. and isolated. In the following Examples 4 and 5, the inner ear culture was carried out in DMEM (high glucose) culture medium containing 10% FBS (Fetal bovine serum) under the condition of 5% CO2/20% O2, at 37° C.
[1] The inner ear of C57BL/6J mouse (hereinafter referred to as “P3 mouse”) on the third day after birth was isolated and cultured in a culture solution for 24 hours.
[2] […] Thereafter, washing with TBS (TBST) solution containing 0.3% Triton X-100 for 5 minutes was repeated twice, followed by taking photograph with a fluorescence microscope (BZ-9000, manufactured by Keyence) and observed using BZ-H1 software (manufactured by Keyence). From the obtained image, the number of cells and the number of damaged cells, each of which has a shape of 200 μm each corresponding to each part of the apex turn, the media turn, and the basilar turn, were measured and 3 parts of the cochlea (apex, media, basilar) were calculated from the survival rate (%) of the outer hair cells and the inner hair cells. […]

[4] = 1 mg/kg body weight/day oral for 1 week
[5] = 10 mg/kg body weight/day oral for 1 week

O=C(CC(C(=O)O)c1c[nH]c2ccccc12)c1ccc(F)cc1F (stereo not shown) [compound #5, 4-(2,4-Difluorophenyl)-2-(1H-indol-3-yl)-4-oxo-butanoic Acid]
ABR threshold change before and after strong acoustic exposure [1, 4]: decreased
ABR threshold value after 4 hours of strong acoustic exposure [1, 4]: lower
ABR threshold change before and after strong acoustic exposure [1, 5]: decreased
ABR threshold value after 4 hours of strong acoustic exposure [1, 5]: lower
ABR threshold values before strong acoustic exposure ([1]; 1 and 10 mg/kg body weight/day oral for 1 week): no difference
ABR threshold ([2]; Example 6, 1 mg/kg body weight/day oral, 28 to 60 days of age, measured at 60 days): lower than the ABR threshold in the non-administration group of Ndufs 4 KO mice
ABR threshold value ([2]; Example 7, 1 mg/kg body weight/day oral, at 60 days of age): decreased
ABR threshold ([2]; Example 8, 0.3 mg/kg body weight/day oral): decreased
survival rate of the outer hair cells ([3]; cisplatin 10 μM, compound 0, 1, 5, 10, 50 μM): increases in a concentration-dependent manner
survival rate of the outer hair cells ([3]; compound 10 μM, cisplatin 0, 5, 7.5, 10, 15, 20 μM, apex, media, basilar): increased as compared with the DMSO-treated group
